Source: patent US10899763B2, “Crystalline forms of salts of fused penta-cyclic dihydrodiazepinocarbazolones, and uses thereof” (BEIGENE, LTD., priority 2017, dated 2021)
Like-named read-outs stand apart in the source and are kept apart here.

How the values were obtained:
[1] = Metabolism in human liver microsomes; format: in vitro ADME
PARP = details: for PARylation inhibition in tumor: 5.45 mg/kg single oral dose
Ames assay = format: cell-based
MDA-MB-231 cells = test: Synthetic lethality, CellTiter-Glo cell viability, MDA-MB-231; format: cell-based; details: Homo sapiens; MDA-MB-231, BRCA wildtype; read-out: EC50
Method: MDA-MB-231 cells that is not BRCA gene mutant or other homologous recombination deficient were maintained in DMEM supplemented with fetal bovine serum (10% FBS), 100 units/ml penicillin and 0.1 mg/ml streptomycin. BRCA1-deficient cell line MDA-MB-436 was maintained in RPMI-1640 supplemented with 10% FBS, 100 units/ml penicillin and 0.1 mg/ml streptomycin. Both two cell lines were kept at 95% humidity and 5% CO2 in a 37° C. incubator.
The number of tumor cells seeded per well of a 96-well plate was optimized for each cell line to ensure logarithmic growth over the 7 days treatment period. Cells were left to attach for 16 hours and then treated with specific concentrations of test compounds. Following a 7-day exposure to the compound, the growth-inhibitory activity of compounds was determined using CellTiter-Glo luminescent cell viability assay (Promega). Luminescent signal was measured using PHERAstar FS reader (BMG Labtech). Cell viability was expressed as relative to mock treatment control. EC50 values for growth inhibition were calculated by fitting dose-dependent data to the four-parameter logistic model using XLfit software.

[2] = Plasma protein binding, rat plasma; format: in vitro ADME
Pharmacokinetics in dog = format: in vivo
Method: (§1) The species used for the pharmacokinetic studies were rat and dog. Compound 1 had good to excellent oral bioavailability (>40%) in both species. Elimination half-lives ranged from 3.1 to 5.0 hours in rats and 1.5 to 2.5 hours in dogs after oral administration. […] Steady state volume of distribution in rats and dogs was 2.4 L/kg and 1.9 L/kg, respectively.

Brain penetration = details: in vivo
[3] = Metabolism in dog liver microsomes; format: in vitro ADME
[4] = Metabolism in monkey liver microsomes; format: in vitro ADME
[5] = Metabolism in rat liver microsomes; format: in vitro ADME
[6] = system: TMZ-resistant (TR) H209 tumors; test: TMZ-resistant H209-TR xenograft mouse model; format: in vivo; details: combination of Compound 1 and TMZ
Source text: (§2) The in vivo efficacy of Compound 1 was explored in H209 SCLC xenograft model to evaluate the combination effect of Compound 1 and Temozolomide (TMZ), a DNA alkylating agent. TMZ single agent was quite effective in this model. […] However, resistance occurred quickly during the second cycle. […] In order to investigate whether Compound 1 could overcome the TMZ resistance, TMZ-resistant (TR) H209 tumors were generated by treating the H209 tumors with multiple cycles of TMZ in vivo. […] Mice with established intracranial H209 xenografts were used to further investigate the combination activity of Compound 1 and TMZ on SCLC in brain.

[7] = system: intracranial H209 xenografts; test: Intracranial H209 xenograft model; format: in vivo, Mice; details: addition of Compound 1 to TMZ
Source text: as §2

CYP isoform = test: CYP isoforms responsible for metabolism; format: in vitro ADME
[8] = system: BRCA1 mutation breast cancer xenograft; test: BRCA1 mutation breast cancer xenograft model; format: in vivo; details: at much lower dose than olaparib
[9] = Nonclinical toxicity, single and repeat dose up to 28 days, dogs; format: in vivo
Pharmacokinetics in rat = format: in vivo
Method: as §1

[10] = Metabolism in mouse liver microsomes; format: in vitro ADME
[11] = Nonclinical toxicity, single and repeat dose up to 28 days, rats; format: in vivo
[12] = Phase I clinical safety study; format: in vivo; details: BRCA1/2 mutant ovary cancer patients
CYP3A = test: CYP induction, CYP3A; format: in vitro ADME, human
H209 SCLC xenograft = H209 SCLC xenograft model, combination with TMZ; format: in vivo, mouse; details: combination of Compound 1 and TMZ, multiple cycles
Source text: as §2

CYP2B6 = test: CYP induction, CYP2B6; format: in vitro ADME, human
human CYP1A2 = test: CYP induction, CYP1A2; format: in vitro ADME
[13] = Tissue distribution and excretion after oral administration in rats; format: in vivo
Method: After oral administration in rats, Compound 1 was detected in all organs checked. The drug concentrations reached maximum at 0.25 to 1 hour post-dosing and decreased to less than 10% of the peak concentration at 24 hours post-dosing.
Compound 1 was primarily excreted in feces. The accumulative excretion amounts of Compound 1 in feces were 15% to 20% (up to 48 hours) after oral administration. Less than 1% of Compound 1 was excreted in urine and bile in rats.

## C[C@]12CCCN1CC1=NNC(=O)c3cc(F)cc4[nH]c2c1c34 [Compound 1, (R)-2-fluoro-10a-methyl-7,8,9,10,10a,11-hexahydro-5,6,7a,11-tetraazacyclohepta[def]cyclopenta-[a]fluoren-4(5H)-one]
[1]
  metabolism rate in liver microsomes: metabolized slowly
PARP; 0.5 hour after treatment
  PARylation inhibition in tumor: 98%
PARP; at 24 hours
  PARylation inhibition in tumor: 53%
PARP; through the first 12 hours
  PARylation inhibition in tumor: > 80%
PARP; at 4 hours after single oral dose
  single oral dose at which potent inhibition of PARylation was observed: ≥ 0.34 mg/kg
PARP; dose titration and time course study
  concentration in tumor tissues needed to achieve at least 80% PARylation inhibition: over 0.5 μmol/kg
Ames assay
  mutagenicity: No mutagenicity
MDA-MB-231 cells
  EC50: ~9 µM
[2]
  Plasma protein binding (PPB): 84.9%
Pharmacokinetics in dog
  accumulation following multiple oral dosing: no accumulation
Brain penetration
  brain penetration: significant brain penetration
[3]
  metabolism rate in liver microsomes: metabolized slowly
[4]
  metabolism rate in liver microsomes: quickly
[5]
  metabolism rate in liver microsomes: metabolized slowly
[6]
  sensitivity of H209-TR lines to combination with TMZ: remained sensitive
[7]
  animal survival compared to TMZ single agent: significantly prolonged animal survival
CYP isoform
  major CYP isoform responsible for metabolism: CYP3A
[8]
  tumor regression: significantly induces tumor regression
[9]
  reversibility of toxicity: reversible after 28-day recovery phase
[9]; up to 28 days
  major target organ of toxicity: bone marrow
Pharmacokinetics in rat
  accumulation following multiple oral dosing: no accumulation
[10]
  metabolism rate in liver microsomes: metabolized slowly
[11]
  reversibility of toxicity: reversible after 28-day recovery phase
[11]; up to 28 days
  major target organ of toxicity: bone marrow
[12]
  clinical response: partial or complete responses
CYP3A
  induction of human CYP3A: not an inducer
H209 SCLC xenograft
  effect of combination with TMZ on resistance: significantly delayed resistance without additional toxicity
CYP2B6
  induction of human CYP2B6: not an inducer
Human CYP1A2
  induction of human CYP1A2: not an inducer
[13]
  excreted in urine and bile: Less than 1%
[13]; oral, 24 hours post-dosing
  drug concentration in organs as % of the peak concentration: less than 10%
